Experimental data: patent publication US5674837A, “Stable bleomycin sulfate solution suitable for injection” (Abbott Laboratories, priority 1994, dated 1997)
Where two headings read alike, the source gives them in different places.

Key:
[1] = test system: Mycobacterium smegmatis; test: Storage stability of bleomycin sulfate solutions, potency by microbial agar diffusion assay; type: physicochemical; set-up: first-order degradation rate constant k: unit not given here; conditions: for % of Initial Drug Remaining (Potency): 3 U/mL in SWFI, RT
Procedure: As used herein, "stable" or "stabilizing" refers to the retention of potency of a bleomycin solution in the range of about 90-120% of its initial starting potency. Potency refers to the amount of antimicrobial activity of the bleomycin solution as determined by microbial assay and is expressed in units of activity. One unit of bleomycin is equivalent in activity to 1 mg of bleomycin A2 reference standard. A2 reference standards are well known to those of ordinary skill in the art and may be purchased from a variety of commercial suppliers. […] The assay is performed as follows:
ii. Plates for potency assay: The number of plates required per assay is dependent on the number of samples to be tested. For all tests, at least 12 plates are required to establish a standard response line (see "Standard Response Line Solutions" below) and at least 3 plates are required to determine the potency of each test sample. Plates for potency testing are prepared by evenly distributing a 10 mL base layer of melted Medium 35 to an appropriate number of plastic or glass Petri dishes (20 by 100 millimeters). The layer of base agar medium is poured into each plate on a flat level surface, and a cover placed on each plate in turn; if a nonporous cover is used, the cover is left slightly ajar to prevent accumulation of condensing moisture from the hot agar base layer. After the agar hardens, the nonporous cover is seated on each plate. To prepare the seed layer, an amount of test organism suspension (see "Test Organism Suspension" below) is added to a sufficient amount of Medium 35 (which has been melted and cooled to 48° C.-50° C.) to equal a ratio of 1 mL suspension for each 100 mL of medium. The flask is swirled to obtain a homogeneous suspension, and 6 mL of suspension then added to each of the plates containing the uninoculated base agar. The seed layer is spread evenly over the agar surface, covered and allowed to harden on a flat, level surface. After the agar has hardened, 6 cylinders (stainless steel with an outside diameter of 8 millimeters (±0.1 millimeter), an inside diameter of 6 millimeters (±0.1 millimeter), and a length of 10 millimeters (±0.1 millimeter)) are placed on the inoculated agar surface so that they are at approximately 60° intervals on a 2.8 centimeter radius.
c. Test Organism Suspension: Test organism, Mycobacterium smegmatis (Cat. #607 from the American Type Culture Collection, 12301 Parklawn Dr., Rockville, Md. 20852 ) is maintained on agar slants containing 10 mL of Medium 36 as described above and transferred to a fresh slant about once a week. Slants are Incubated at 37° C. for 48 hours immediately after transfer. To prepare the test organism suspension, 3 mL of sterile USP saline T.S., is used to wash the growth from the agar slant into a 500-mL Edenmeyer flask containing 100 mL of Medium 34 and 50 gm of glass beads. The culture is agitated by rotation at a speed of 130 cycles per minute and a radius of 3.5 centimeters at 37° C. for 5 days. The test organism suspension is stored under refrigeration for a period of up to 2 weeks.
ii. Working Standard Stock Solution: The working standard of bleomycin is prepared as follows: In an atmosphere of about 10 percent relative humidity, about 100 milligrams of a fine powder of the drug is transferred to a tared weighing bottle equipped with a ground-glass stopper. The bottle is weighed and placed in a vacuum oven, with the stopper tilted on its side so that there is no closure during the drying period. The drug is dried at a temperature of 25° C. and a pressure of 5 millimeters of mercury or less for 4 hours. At the end of the drying period, the vacuum oven is filled with air that has been dried by passing it through a drying agent such as sulfuric acid or silica gel. The stopper is replaced and the weighing bottle placed in a desiccator over a desiccating agent, such as phosphorous pentoxide or silica gel, allowed to cool to room temperature, and reweighed.

[2] = cited from earlier work
[3] = 0.1M citrate buffer, 5° C., 3 mo.
[4] = 0.1M citrate buffer, 25° C., 2 mo.
[5] = 0.1M citrate buffer, 25° C., 3 mo.
[6] = 0.1M citrate buffer, 40° C., 1 mo.
[7] = 0.1M citrate buffer, 40° C., 2 mo.
[8] = 0.1M citrate buffer, 40° C., 3 mo.

Substance: bleomycin
- shelf-life t90% (time required to reach 90% of the initial potency) ([1]; solution in SWFI at RT, estimated from k): ~3.44 months
- first-order degradation rate constant k ([1]; solution in SWFI at RT, from 24 month data): ~0.03058
- time stable, reconstituted solutions ([2]; 2° C.-8° C.): 4 weeks
- stability in ointment base ([2]; in dermabase or tincture of benzoin): quite unstable
- loss of activity ([2]; in petrolatum ointment base, in two years): 7%
- time stable in solution ([2]; in saline (Dorr et al.)): up to seven
- claimed stability time ([2]; multidose premix in sodium chloride, under refrigeration): 100 days
- time stable, reconstituted solutions ([2]; room temperature): 2 weeks

Substance: bleomycin sulfate
- % Potency Remaining [1, 3]: 107.3%
- Potency [1, 3]: 16.51 units per vial
- % Potency Remaining [1, 4]: 104.1%
- Potency [1, 4]: 16.02 units per vial
- % Potency Remaining [1, 5]: 95.2%
- Potency [1, 5]: 14.65 units per vial
- % Potency Remaining [1, 6]: 87.1%
- Potency [1, 6]: 13.40 units per vial
- % Potency Remaining [1, 7]: 83.1%
- Potency [1, 7]: 12.79 units per vial
- % Potency Remaining [1, 8]: 59.3%
- Potency [1, 8]: 9.13 units per vial
- starting concentration (initial potency) ([1]; 0.1M citrate buffer): 15.39 units per vial
- % of Initial Drug Remaining (Potency) ([1]; 0 months): 100.0%
- % of Initial Drug Remaining (Potency) ([1]; 24 months): 48.0%
- % Potency Remaining ([1]; SWFI, 5° C., 3 mo.): 105.0%
- Potency ([1]; SWFI, 5° C., 3 mo.): 16.37 units per vial
- % Potency Remaining ([1]; SWFI, 25° C., 2 mo.): 105.1%
- Potency ([1]; SWFI, 25° C., 2 mo.): 16.38 units per vial
- % Potency Remaining ([1]; SWFI, 25° C., 3 mo.): 101.5%
- Potency ([1]; SWFI, 25° C., 3 mo.): 15.82 units per vial
- % Potency Remaining ([1]; SWFI, 40° C., 1 mo.): 96.1%
- Potency ([1]; SWFI, 40° C., 1 mo.): 14.97 units per vial
- % Potency Remaining ([1]; SWFI, 40° C., 2 mo.): 97.7%
- Potency ([1]; SWFI, 40° C., 2 mo.): 15.22 units per vial
- % Potency Remaining ([1]; SWFI, 40° C., 3 mo.): 63.4%
- Potency ([1]; SWFI, 40° C., 3 mo.): 9.88 units per vial
- starting concentration (initial potency) ([1]; SWFI): 15.58 units per vial
- decrease of potency ([1]; citrate buffer solution, 3 months storage at 40° C.): ~40%
- decrease in stability ([1]; citrate solutions, 25° C. and 5° C., 3 months storage): little if any, decrease in stability
